Values of other authors, collected in patent US20050182029A1, “Metformin salts of lipophilic acids” (Sonus Pharmaceuticals, Inc., priority 2002, published 2005).

Legend:
[1] = healthy human subjects

colonic absorption [1]: poor colonic absorption
maximum metformin plasma levels (Cmax) (controlled clinical trials, even at maximum doses): ≤ 4000 ng/mL
steady-state plasma concentration (usual metformin doses and dosing schedules, reached within 24 to 48 hours): less than 1 ug/mL
Compound: CN(C)C(=N)N=C(N)N [metformin]
